According to patent KR20110060529A, “시클로헥산 디카르복실산 유도체를 함유하는 피부 외용제 조성물” ((주)아모레퍼시픽, priority 2009, dated 2011):

Experiments:
Format in all cases: in vitro ADME, guinea pig
[1] = Test Example 2: skin absorption of ascorbyl glucoside (Franz permeation cell, HPLC)
[2] = Test Example 3: skin absorption of arbutin (Franz permeation cell, HPLC)
[3] = Test Example 4: skin absorption of vitamin A (retinoic acid) (Franz permeation cell, HPLC)

In the case of CCOCCOCCOC(=O)C1CCC(C(=O)OCCOCCOCC)CC1 (stereo not drawn) [시클로헥산 디카르복실산 유도체, Bis-Ethoxydiglycol Cyclohexane 1,4-Dicarboxylate], the “increase in skin absorption of ascorbyl glucoside” value [1] is reported as 5~6 fold, the “increase in skin absorption of arbutin” value [2] is reported as 5~6 fold and the “increase in skin absorption of retinoic acid” value [3] is reported as 2~3 fold.
